This is an account of results in article PMC6100356, “The Design and Synthesis of N-Xanthone Benzenesulfonamides as Novel Phosphoglycerate Mutase 1 (PGAM1) Inhibitors” (Molecules : A Journal of Synthetic Chemistry and Natural …, 2018).

In one assay the test system is enolase, PK, LDH. Description: Counter-screen assay (coupled enzymes without PGAM1, 2PG as substrate). Type of assay: biochemical. The protocol:
The counter-screen assay was then performed to exclude the off-target inhibition against other enzymes in the in vitro assay (Table 3).

In the next assay the test system is H1299 cell line. Description: In vitro antiproliferation of H1299 cells (MTT method). The assay is classed as cell-based. The conditions noted are these: Homo sapiens, NCI-H1299, 72 h, means ± SD from three determinations. The protocol:
Then, some representative compounds were picked out to evaluate their antiproliferative activity (H1299 cell line) by the MTT method (Table 4).
2 × 10^3 cells were seeded in a 96-well plate before starting the assay and they were cultured at 37 °C. After seeding for 24 h, cells were treated with inhibitors with a specific concentration and incubated at 37 °C for 72 h, followed by incubation with 0.5 mg mL^−1 MTT for 4 h at 37 °C. Then, 200 µL of DMSO was added and the absorbance was measured at 570 nm.
In general terms: Tetrazolium assays rely on reduction of a dye to a coloured formazan, in cell work by metabolically active cells.

For another assay, the system named is PGAM1. The conditions noted are these: Figure 1; ref 14 (PGMI-004A), ref 20 (EGCG); cited from earlier work.
For a further assay, the system named is H1299 cell. The conditions noted are these: Figure 1; ref 14 (PGMI-004A), ref 20 (EGCG); cited from earlier work.

Structures are written as SMILES.

The term IC50 denotes the concentration that gives 50% inhibition. Take `CC(=O)Oc1ccc2oc3cc(NS(=O)(=O)c4ccc(-c5ccccc5)cc4)cc(O)c3c(=O)c2c1` [Compound 15j, 6-([1,1′-Biphenyl]-4-sulfonamido)-8-hydroxy-9-oxo-9H-xanthen-2-yl acetate]: the “Counter-Screen Assay (5 μM), inhibition ratio against the other three enzymes” value in the assay on enolase, PK, LDH was 7%. The compound also returned an IC50 in the assay on H1299 cell line of 31.1 ± 4.5 µM.
`O=c1c2c(O)cccc2oc2cc(NS(=O)(=O)c3cccc4ccccc34)cc(O)c12` [Compound 9n, N-(1,8-Dihydroxy-9-oxo-9H-xanthen-3-yl)naphthalene-1-sulfonamide]: in the assay with enolase, PK, LDH, the “Counter-Screen Assay (5 μM), inhibition ratio against the other three enzymes” value is recorded as 13%.
On to `O=c1c2cc([N+](=O)[O-])ccc2oc2cc(NS(=O)(=O)c3ccc(-c4ccccc4)cc3)cc(O)c12` [Compound 15h, N-(1-Hydroxy-7-nitro-9-oxo-9H-xanthen-3-yl)-[1,1′-biphenyl]-4-sulfonamide], for which, in the assay on enolase, PK, LDH, the “Counter-Screen Assay (5 μM), inhibition ratio against the other three enzymes” value turned out to be 5%. The IC50 with H1299 cell line is 33.8 ± 6.1 µM.
For the compound `O=c1c2c(O)cccc2oc2cc(NS(=O)(=O)c3cccc(Cl)c3F)cc(O)c12` [Compound 9h, 3-Chloro-N-(1,8-dihydroxy-9-oxo-9H-xanthen-3-yl)-2-fluorobenzenesulfonamide], the “Counter-Screen Assay (5 μM), inhibition ratio against the other three enzymes” value in the assay with enolase, PK, LDH is 12%. In the assay with H1299 cell line, this compound yielded an IC50 of 14.1 ± 1.9 µM.
As to `O=C(O[C@@H]1Cc2c(O)cc(O)cc2O[C@@H]1c1cc(O)c(O)c(O)c1)c1cc(O)c(O)c(O)c1` [EGCG, epigallocatechin gallate], the IC50 is 0.49 µM in the assay with PGAM1 and > 80 µM with H1299 cell.
As to `O=c1c2cc(Cl)ccc2oc2cc(NS(=O)(=O)c3ccc(-c4ccccc4)cc3)cc(O)c12` [Compound 15f, N-(7-Chloro-1-hydroxy-9-oxo-9H-xanthen-3-yl)-[1,1′-biphenyl]-4-sulfonamide], the “Counter-Screen Assay (5 μM), inhibition ratio against the other three enzymes” value in the assay on enolase, PK, LDH is recorded as 8%. The compound further came in with an IC50 in the assay with H1299 cell line of 32.7 ± 0.9 µM.
Consider `CC(C)(C)c1ccc(S(=O)(=O)Nc2cc(O)c3c(=O)c4c(O)cccc4oc3c2)cc1` [Compound 9k, 4-(tert-Butyl)-N-(1,8-dihydroxy-9-oxo-9H-xanthen-3-yl)benzenesulfonamide], for which, in the assay on enolase, PK, LDH, the “Counter-Screen Assay (5 μM), inhibition ratio against the other three enzymes” value was determined as 12%. Moreover, the IC50 with H1299 cell line turned out to be 21.1 ± 1.7 µM.
The corresponding values for `O=c1c2cc(O)ccc2oc2cc(NS(=O)(=O)c3ccc(-c4ccccc4)cc3)cc(O)c12` [Compound 15i, N-(1,7-Dihydroxy-9-oxo-9H-xanthen-3-yl)-[1,1′-biphenyl]-4-sulfonamide] are 10% and 30.6 ± 2.4 µM.
The corresponding values for `COc1ccc2oc3cc(NS(=O)(=O)c4ccc(-c5ccccc5)cc4)cc(O)c3c(=O)c2c1` [Compound 15d, N-(1-Hydroxy-7-methoxy-9-oxo-9H-xanthen-3-yl)-[1,1′-biphenyl]-4-sulfonamide] are 6% and 19.6 ± 2.2 µM.
The corresponding values for `COc1cccc2c(=O)c3c(O)cc(NS(=O)(=O)c4ccc(-c5ccccc5)cc4)cc3oc12` [Compound 15b, N-(1-Hydroxy-5-methoxy-9-oxo-9H-xanthen-3-yl)-[1,1′-biphenyl]-4-sulfonamide] are 13% and 42.7 ± 3.9 µM.
Consider `O=C1c2ccccc2C(=O)c2c1cc(S(=O)(=O)Nc1ccc(C(F)(F)F)cc1)c(O)c2O` [PGMI-004A, reference compound], for which the half-maximal inhibitory concentration (IC50) is 26 ± 2.1 µM in the assay on H1299 cell line and 25.6 µM in the assay with H1299 cell.
Turning to `O=c1c2c(O)cccc2oc2cc(NS(=O)(=O)c3ccc(C4CCCCC4)cc3)cc(O)c12` [Compound 9l, 4-Cyclohexyl-N-(1,8-dihydroxy-9-oxo-9H-xanthen-3-yl)benzenesulfonamide], the “Counter-Screen Assay (5 μM), inhibition ratio against the other three enzymes” value in the assay with enolase, PK, LDH was determined as 15%. Besides, the IC50 with H1299 cell line came out at 18.5 ± 2.3 µM.
On to `O=c1c2c(O)cccc2oc2cc(NS(=O)(=O)c3ccc(-c4ccccc4)cc3)cc(O)c12` [Compound 9m, N-(1,8-Dihydroxy-9-oxo-9H-xanthen-3-yl)-[1,1′-biphenyl]-4-sulfonamide], for which the “Counter-Screen Assay (5 μM), inhibition ratio against the other three enzymes” value in the assay with enolase, PK, LDH was 9%. This compound came in with an IC50 in the assay with H1299 cell line of 20.1 ± 1.4 µM.
In turn, `Nc1ccn([C@@H]2O[C@H](CO)[C@@H](O)C2(F)F)c(=O)n1` [Gemcitabine, reference compound] registered an IC50 with H1299 cell line of 0.193 µM.
On to `Cc1ccc2oc3cc(NS(=O)(=O)c4ccc(-c5ccccc5)cc4)cc(O)c3c(=O)c2c1` [Compound 15e, N-(1-Hydroxy-7-methyl-9-oxo-9H-xanthen-3-yl)-[1,1′-biphenyl]-4-sulfonamide], for which, in the assay with enolase, PK, LDH, the “Counter-Screen Assay (5 μM), inhibition ratio against the other three enzymes” value was 7%.
Consider `Cc1cccc2c(=O)c3c(O)cc(NS(=O)(=O)c4ccc(-c5ccccc5)cc4)cc3oc12` [Compound 15c, N-(1-Hydroxy-5-methyl-9-oxo-9H-xanthen-3-yl)-[1,1′-biphenyl]-4-sulfonamide], for which the “Counter-Screen Assay (5 μM), inhibition ratio against the other three enzymes” value in the assay with enolase, PK, LDH worked out at 7%.
